Converted amounts (≈) assume the structure as drawn.
What was measured:
[1] = PK study: DTG in serum by HPLC-MS; format: in vivo, mice
Experimental: Five (5) mg/kg DTG, or hEB-DTG containing equivalent amount of DTG were i.v. injected into mice. After 1, 4, 12, 24 or 48 h, serum and LNs were collected. Samples were homogenized and vortex in 1 mL mixture of water and methanol (1/1, v/v), and then another 1 mL mixture of methanol and acetonitrile (1/1, v/v) was added for extraction. After centrifugation at 12,500 g for 10 min, the supernatants were collected for measurement under HPLC-MS with a previously reported method. For hydrolysis of the ester bond in hEB-DTG to release free DTG, the biological samples suspension mentioned above were incubated in 300 mg/mL guanidine hydrochloride solution at 80 °C for 24 h before extraction.

Aqueous solubility = format: physicochemical; details: water
TZM-bl cells = experiment: Cell viability assay (CellTiter-Glo 2.0); format: cell-based; details: 48 h
Experimental: DTG and hEB-DTG prodrug cytotoxicity was measured at different concentrations against TZM-bl reporter cell line in the presence or absence of HIV-WT virus using the CellTiter-Glo™ 2.0 Assay (Promega, WI, USA) according to the manufacturer’s protocol. TZM-bl cells were seeded in the 96-well white plate at a density of 1 × 10^4 cells/well, and after 24 h, the cells were infected with HIV-WT virus and treated with DTG and hEB-DTG in a concentration range (diluted 1:100) from 3 × 10^−1 mg/mL to 3 × 10^−15 mg/mL. After 48 h, cells were subjected to CellTiter-Glo™ 2.0 Assay (Promega). The CellTiter-Glo™ 2.0 Reagent was equilibrated to room temperature and gently mixed. 100 μL of CellTiter-Glo™ 2.0 Reagent was added to each well containing 100 μL of cells in the medium. Contents were shaken in an orbital shaker for 2 min and incubated at room temperature for precisely 10 min, and then luminescence was measured with a Varioskan LUX Multimode Microplate Reader. Untreated/infected cells were used as a baseline control. Viability of cells was presented as a percentage of OD values of the control cells. For each assay run, data points were collected in triplicate.

HIV-WT virus = experiment: Drug susceptibility assay (luciferase reporter in TZM-bl cells); format: cell-based, human immunodeficiency virus; details: TZM-bl cells infected with HIV-WT, 48 h
Experimental: DTG and hEB-DTG luciferase expression levels were measured at different concentrations against TZM-bl reporter cell line in the presence of HIV-WT virus using the Britelite Plus Ultra-High Sensitivity Luminescence Reporter Gene Assay System (Revvity, MA, USA) according to the manufacturer’s protocol. TZM-bl cells were seeded in clear bottom white 96-well plate in a total volume of 200 μl DMEM-10 complete (+ 10 % FBS + 1 % penicillin/streptomycin) at a density of 1 × 10^4 cells/well. After 24 h, the cells were infected with the HIV-WT virus and treated with DTG and hEB-DTG in a concentration range (serial diluted 1:100) from 3 × 10^−1 mg/mL to 3 × 10^−15 mg/mL in PRF-10 complete media (+10 % FBS + 1 % penicillin/streptomycin). After 48 h of incubation, the cells were subjected to Britelite Plus Ultra-High Sensitivity Luminescence Reporter Gene Assay System (Revvity). The Britelite plus Lyophilized Substrate was reconstituted with the given Britelite Plus Reconstitution Buffer. After gently inverting and settling the solution for 5 min, 100 μL of the reconstituted Britelite Substrate solution was added to each well containing 100 μL of cells in the medium. Luminescence was measured with a Varioskan LUX Multimode Microplate Reader precisely after 2 min. Untreated/infected cells were used as baseline control. The inhibitory concentrations of each drug were presented as a percentage of OD value of the control cells. For each assay run, data points were collected in triplicate.

BSA = BSA (Bos taurus, UniProt P02769); experiment: Gel retardation study with BSA; format: binding, bovine; details: in words
BSA, sequence (P02769 25-607): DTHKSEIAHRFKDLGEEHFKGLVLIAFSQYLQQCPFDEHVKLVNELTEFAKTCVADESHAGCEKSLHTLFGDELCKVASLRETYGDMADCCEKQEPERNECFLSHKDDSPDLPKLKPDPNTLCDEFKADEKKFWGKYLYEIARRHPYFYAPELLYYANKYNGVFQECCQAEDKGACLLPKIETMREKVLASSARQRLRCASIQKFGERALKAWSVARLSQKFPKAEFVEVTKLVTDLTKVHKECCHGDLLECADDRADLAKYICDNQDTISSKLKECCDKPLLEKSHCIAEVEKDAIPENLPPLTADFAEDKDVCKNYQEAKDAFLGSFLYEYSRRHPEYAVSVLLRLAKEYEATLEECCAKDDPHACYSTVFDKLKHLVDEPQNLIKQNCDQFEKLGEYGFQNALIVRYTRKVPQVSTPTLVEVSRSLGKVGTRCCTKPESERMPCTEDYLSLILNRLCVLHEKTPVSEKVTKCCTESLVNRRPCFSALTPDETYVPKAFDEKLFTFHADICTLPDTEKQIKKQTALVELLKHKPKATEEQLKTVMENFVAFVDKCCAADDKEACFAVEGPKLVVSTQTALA
Experimental: Twenty (20) μg EB, hEB, hEB-platin, or hEB-DTG were mixed with or without various amounts of BSA, globulin, fibrinogen or FBS in 200 μL saline water, then 40 μL of the mixed solution were loaded to 1.5 % agarose gel and run under 120 V for 30 min.

[2] = Release of DTG from hEB-DTG (storage stability and in vitro release kinetics, HPLC-MS); format: physicochemical; details: for DTG released (cumulative): PBS
HEK293T cells = experiment: Cellular uptake study in vitro (flow cytometry); format: cell-based; details: in words
Experimental: HEK293T or HUVEC cells were seeded to 6-well plates. After overnight incubation, the culture medium was replaced by fresh medium containing 10 μM EB and 2, 5, or 20 mg/mL BSA for incubation of 0.5, 1 or 3 h at 37 °C. Later, cells were washed with cold PBS and fixed with PBS containing 4 % (w/v) formaldehyde.
Cellular uptake of different treatments was quantified by flow cytometry. Fluorescence was examined at an excitation wavelength of 532 nm and an emission wavelength of 660 nm. 10 × 10^4 events were collected for each sample.

HUVEC monolayer = experiment: Transwell study: transport across a HUVEC monolayer, flow cytometry of HEK293T cells in lower chamber; format: cell-based; details: albumin-bound, 8 h, in words
Experimental: HEK293T were seeded to 6-well plates as lower chamber and HUVEC were seeded to Corning (NY, USA) 6-well plate inserts (0.4 μm pore size) in another plate as upper chamber, respectively. After incubation and the cell layer on the upper chamber became intact, the culture medium in the inserts was replaced by fresh medium containing 0, 5 or 20 μg/mL filipin and 0 or 10 μg/mL LPS for overnight incubation. Next, the culture medium in the inserts was replaced with fresh medium containing 10 μM EB, hEB or hEB-DTG and 2 mg/mL BSA, then the inserts were moved to the wells cultured with HEK293T cells for incubation of 8 h at 37 °C. After that, HEK293T cells in the lower chambers were washed with cold PBS.
EB signals in HEK293T cells were quantified by flow cytometry. Fluorescence was examined at an excitation wavelength of 532 nm and an emission wavelength of 660 nm. 10 × 10^4 events were collected for each sample.

[3] = Distribution in LN tissue and cells in LNs after i.v. injection (fluorescence microscopy, flow cytometry); format: in vivo; details: in words
Experimental: Five (5) μM/kg EB, hEB or hEB-DTG were i.v. injected into mice pretreated intraperitoneally with or without 2.5 mg/kg LPS for 24 h. After 24 h, LNs from different sites were collected and their signals of EB were checked under fluorescent microscopy. To evaluate the EB signals in various types of cells, LNs were disrupted mechanically using scissors, digested with a mixture of deoxyribonuclease I (0.3 mg/mL, Sigma-Aldrich) and TL Liberase (0.25 mg/mL, Roche, IN, USA) in serum-free RPMI-1640 at 37 °C for 30 min, and dispersed through a 40 μm cell strainer (BD Biosciences, CA, USA). After red blood cell lysis, live/dead cell discrimination was performed using a Zombie NIR Fixable Viability Kit (BioLegend, CA, USA, dilution: 1/1000) at 4 °C for 30 min in DPBS. Surface staining was performed at 4 °C for 30 min in FACS staining buffer (1 × phosphate-buffered saline/5 % FBS/0.5 % sodium azide) containing designated antibody cocktails (PerCP anti-mouse CD45 antibody, Brilliant Violet 785 anti-mouse CD4 antibody, FITC anti-mouse CD8 antibody, APC anti-mouse CD11b antibody, APC/Cyanine7 anti-mouse F4/80 antibody, Pacific Blue anti-mouse CD19 antibody and AF647 anti-mouse CD27 antibody; dilution: 1/200 for all antibodies). Flow cytometry was performed with LSRII (BD Biosciences) and Aurora (Cytek Biosciences, CA, USA) instruments and analyzed by FlowJo (BD Biosciences). The EB signals in each type of cell were quantified as mentioned above.

Structure (SMILES) | clearance ([1]; mouse, serum, iv, single i.v. injection of free DTG 5 mg/kg, one-compartment model, read-out: CL, free DTG in serum (converted)) [mL/min] | half-life ([1]; mouse, serum, iv, single i.v. injection of free DTG 5 mg/kg, one-compartment model, read-out: t1/2, free DTG in serum (converted)) [h] | solubility (Aqueous solubility) [µg/mL] | concentrations above which cell viability began to decline (TZM-bl cells) | concentrations with minimal cytotoxicity (TZM-bl cells) | concentrations that potently inhibited HIV-WT replication (HIV-WT virus) [ng/mL] | binding affinity for BSA (BSA) | released DTG concentration in blood vs free DTG group ([1]; 1 h post-injection) | DTG released (cumulative) ([2]; 37 °C, over 96 h) | DTG released (cumulative) ([2]; 37 °C, within 24 h) | DTG release in serum compared with PBS ([2]; 37 °C, serum) | DTG released ([2]; over 30 days at room temperature, storage conditions) [%] | cellular uptake (HEK293T cells) | antiviral potency relative to free DTG (HIV-WT virus) | transport across endothelial cell monolayer (HUVEC monolayer) | fluorescence signal in LNs ([3]; 24 h post i.v. injection) | uptake by immune cell populations in LNs ([3]; flow cytometry)
C[C@@H]1CCO[C@H]2Cn3cc(C(=O)NCc4ccc(F)cc4F)c(=O)c(O)c3C(=O)N12 [DTG, dolutegravir] | 0.00411 | 3.61 | 40 (≈ 0.0954 mM) | exceeded 1 μg/mL | below 100 ng/mL | ≥ 10 |  |  |  |  |  |  |  |  |  |  | 
Cc1cc(-c2ccc(/N=N/c3ccc4c(S(=O)(=O)O)cc(S(=O)(=O)O)c(N)c4c3O)c(C)c2)ccc1N [hEB, half-truncated Evans Blue] |  |  |  |  |  |  | retained strong binding affinity |  |  |  |  |  |  |  |  |  | 
Cc1cc(-c2ccc(NCC(=O)Oc3c4n(cc(C(=O)NCc5ccc(F)cc5F)c3=O)C[C@@H]3OCC[C@@H](C)N3C4=O)c(C)c2)ccc1/N=N/c1ccc2c(S(=O)(=O)O)cc(S(=O)(=O)O)c(N)c2c1O [hEB-DTG] |  |  | 9640 (≈ 9.62 mM) | exceeded 1 μg/mL | below 100 ng/mL | ≥ 10 | maintained strong binding ability | slightly higher | ~ 60% | ~ 30% | slower | 0.83 | efficiently internalized | slightly less potent | successfully transported | comparable to that of hEB alone | significant EB signals were detected in all cell types analyzed

— article PMC13338763, “Harnessing albumin as a carrier for the delivery of anti-HIV drugs to the lymphatic system” (Acta biomaterialia, 2025)
